# Experimental data reported in patent publication US9006235B2, “Inhibitors of human immunodeficiency virus replication” (priority 2012, dated 2015).
# Read-outs that look alike come from different tables or passages of the source.
# Tested on: recombinant NL-Rluc virus
# Test: Inhibition of HIV replication (NL-Rluc virus, luciferase readout in MT-2 cells)
# Type: cell-based
# Settings: Human immunodeficiency virus 1, MT2, 120 h
smiles,measurement,setting,value
"Cc1nc2cc(NC(=O)CCCc3ccccc3)nn2c(-c2cc(F)c3c(c2C)CCCO3)c1[C@H](OC(C)(C)C)C(=O)O [Example 12, (2S)-2-tert-butoxy-2-(7-(8-fluoro-5-methylchroman-6-yl)-5-methyl-2-(4-phenylbutanamido)pyrazolo[1,5-a]pyrimidin-6-yl)acetic acid]",EC50,,50 nM
same,EC50,read-out: Activity,< 100 nM
"Cc1nc2cc(NC(=O)CCC3CCCC3)nn2c(-c2cc(F)c3c(c2C)CCCO3)c1[C@H](OC(C)(C)C)C(=O)O [Example 2, (2S)-2-tert-butoxy-2-(2-(3-cyclopentylpropanamido)-7-(8-fluoro-5-methylchroman-6-yl)-5-methylpyrazolo[1,5-a]pyrimidin-6-yl)acetic acid]",EC50,read-out: Activity,< 100 nM
"Cc1nc2cc(NC(=O)CCCCCC(C)(C)C)nn2c(-c2cc(F)c3c(c2C)CCCO3)c1[C@H](OC(C)(C)C)C(=O)O [Example 20, (2S)-2-tert-butoxy-2-(2-(7,7-dimethyloctanamido)-7-(8-fluoro-5-methylchroman-6-yl)-5-methylpyrazolo[1,5-a]pyrimidin-6-yl)acetic acid]",EC50,read-out: Activity,< 100 nM
"Cc1nc2cc(NC(=O)CCc3ccccc3)nn2c(-c2cc(F)c3c(c2C)CCCO3)c1[C@H](OC(C)(C)C)C(=O)O [Example 16, (2S)-2-tert-butoxy-2-(7-(8-fluoro-5-methylchroman-6-yl)-5-methyl-2-(3-phenylpropanamido)pyrazolo[1,5-a]pyrimidin-6-yl)acetic acid]",EC50,read-out: Activity,100 to 1000 nM
"Cc1ccc(OC(=O)Nc2cc3nc(C)c([C@H](OC(C)(C)C)C(=O)O)c(-c4cc(F)c5c(c4C)CCCO5)n3n2)cc1 [Example 32, (2S)-2-(tert-butoxy)-2-(7-(8-fluoro-5-methylchroman-6-yl)-5-methyl-2-(((p-tolyloxy)carbonyl)amino)pyrazolo[1,5-a]pyrimidin-6-yl)acetic acid]",EC50,"MT-2 cells infected with NL-RLuc virus, 5 days of incubation, luciferase, serum condition not specified, read-out: Activity",> 1000 nM
same,EC50,"MT-2 cells infected with NL-RLuc virus, 5 days of incubation, luciferase, serum condition not specified, read-out: EC50",6410 nM
"Cc1nc2cc(NC(=O)c3ccc4c(c3)-c3ccccc3C4=O)nn2c(-c2cc(F)c3c(c2C)CCCO3)c1[C@H](OC(C)(C)C)C(=O)O [Example 18, (2S)-2-tert-butoxy-2-(7-(8-fluoro-5-methylchroman-6-yl)-5-methyl-2-(9-oxo-9H-fluorene-3-carboxamido)pyrazolo[1,5-a]pyrimidin-6-yl)acetic acid]",EC50,read-out: Activity,100 to 1000 nM
"Cc1nc2cc(NC(=O)c3cccc(OCc4ccccc4)c3)nn2c(-c2cc(F)c3c(c2C)CCCO3)c1[C@H](OC(C)(C)C)C(=O)O [Example 7, (2S)-2-(2-(3-(benzyloxy)benzamido)-7-(8-fluoro-5-methylchroman-6-yl)-5-methylpyrazolo[1,5-a]pyrimidin-6-yl)-2-tert-butoxyacetic acid]",EC50,read-out: Activity,< 100 nM
"Cc1nc2cc(NC(=O)OCC[Si](C)(C)C)nn2c(-c2cc(F)c3c(c2C)CCCO3)c1[C@H](OC(C)(C)C)C(=O)O [Example 36, (2S)-2-(tert-butoxy)-2-(7-(8-fluoro-5-methylchroman-6-yl)-5-methyl-2-(((2-(trimethylsilyl)ethoxy)carbonyl)amino)pyrazolo[1,5-a]pyrimidin-6-yl)acetic acid]",EC50,read-out: Activity,< 100 nM
"Cc1nc2cc(NC(=O)c3ccc4c(c3)OC(F)(F)O4)nn2c(-c2cc(F)c3c(c2C)CCCO3)c1[C@H](OC(C)(C)C)C(=O)O [Example 22, (2S)-2-tert-butoxy-2-(2-(2,2-difluorobenzo[d][1,3]-dioxole-5-carboxamido)-7-(8-fluoro-5-methylchroman-6-yl)-5-methylpyrazolo[1,5-a]pyrimidin-6-yl)acetic acid]",EC50,read-out: Activity,100 to 1000 nM
"Cc1nc2cc(NC(=O)Cc3ccccc3)nn2c(-c2cc(F)c3c(c2C)CCCO3)c1[C@H](OC(C)(C)C)C(=O)O [Example 4, (2S)-2-tert-butoxy-2-(7-(8-fluoro-5-methylchroman-6-yl)-5-methyl-2-(2-phenylacetamido)pyrazolo[1,5-a]pyrimidin-6-yl)acetic acid]",EC50,,120 nM
same,EC50,read-out: Activity,100 to 1000 nM
"Cc1nc2cc(N3CCCC3)nn2c(-c2cc(F)c3c(c2C)CCCO3)c1[C@H](OC(C)(C)C)C(=O)O [Example 51, (2S)-2-(tert-butoxy)-2-(7-(8-fluoro-5-methylchroman-6-yl)-5-methyl-2-(pyrrolidin-1-yl)pyrazolo[1,5-a]pyrimidin-6-yl)acetic acid]",EC50,read-out: Activity,100 to 1000 nM
"Cc1nc2cc(NC(=O)c3cccc(C#N)c3)nn2c(-c2cc(F)c3c(c2C)CCCO3)c1[C@H](OC(C)(C)C)C(=O)O [Example 8, (2S)-2-tert-butoxy-2-(2-(3-cyanobenzamido)-7-(8-fluoro-5-methylchroman-6-yl)-5-methylpyrazolo[1,5-a]pyrimidin-6-yl)acetic acid]",EC50,read-out: Activity,100 to 1000 nM
"Cc1ccc(NC(=O)Nc2cc3nc(C)c([C@H](OC(C)(C)C)C(=O)O)c(-c4cc(F)c5c(c4C)CCCO5)n3n2)cc1 [Example 37, (2S)-2-(tert-butoxy)-2-(7-(8-fluoro-5-methylchroman-6-yl)-5-methyl-2-(3-(p-tolyl)ureido)pyrazolo[1,5-a]pyrimidin-6-yl)acetic acid]",EC50,read-out: Activity,< 100 nM
"Cc1nc2cc(NC(=O)Cc3ccc(F)cc3)nn2c(-c2cc(F)c3c(c2C)CCCO3)c1[C@H](OC(C)(C)C)C(=O)O [Example 3, (2S)-2-tert-butoxy-2-(7-(8-fluoro-5-methylchroman-6-yl)-2-(2-(4-fluorophenyl)acetamido)-5-methylpyrazolo[1,5-a]pyrimidin-6-yl)acetic acid]",EC50,,80 nM
same,EC50,read-out: Activity,< 100 nM
"Cc1nc2cc(NC(=O)OCc3ccccc3)nn2c(-c2cc(F)c3c(c2C)CCCO3)c1[C@H](OC(C)(C)C)C(=O)O [Example 33, (2S)-2-(2-(((benzyloxy)carbonyl)amino)-7-(8-fluoro-5-methylchroman-6-yl)-5-methylpyrazolo[1,5-a]pyrimidin-6-yl)-2-(tert-butoxy)acetic acid]",EC50,,60 nM
same,EC50,read-out: Activity,< 100 nM
"Cc1nc2cc(NC(=O)OCC(C)(C)C)nn2c(-c2cc(F)c3c(c2C)CCCO3)c1[C@H](OC(C)(C)C)C(=O)O [Example 35, (2S)-2-(tert-butoxy)-2-(7-(8-fluoro-5-methylchroman-6-yl)-5-methyl-2-(((neopentyloxy)carbonyl)amino)pyrazolo[1,5-a]pyrimidin-6-yl)acetic acid]",EC50,read-out: Activity,< 100 nM
"Cc1ccc(CCNc2cc3nc(C)c([C@H](OC(C)(C)C)C(=O)O)c(-c4cc(F)c5c(c4C)CCCO5)n3n2)cc1 [Example 40, (2S)-2-(tert-butoxy)-2-(7-(8-fluoro-5-methylchroman-6-yl)-5-methyl-2-((4-methylphenethyl)amino)pyrazolo[1,5-a]pyrimidin-6-yl)acetic acid]",EC50,read-out: Activity,< 100 nM
"Cc1ccc(C(=O)Nc2cc3nc(C)c([C@H](OC(C)(C)C)C(=O)O)c(-c4cc(F)c5c(c4C)CCCO5)n3n2)cc1C [Example 10, (2S)-2-tert-butoxy-2-(2-(3,4-dimethylbenzamido)-7-(8-fluoro-5-methylchroman-6-yl)-5-methylpyrazolo[1,5-a]pyrimidin-6-yl)acetic acid]",EC50,read-out: Activity,< 100 nM
"Cc1nc2cc(NC(=O)CC3CCCCC3)nn2c(-c2cc(F)c3c(c2C)CCCO3)c1[C@H](OC(C)(C)C)C(=O)O [Example 25, (2S)-2-tert-butoxy-2-(2-(2-cyclohexylacetamido)-7-(8-fluoro-5-methylchroman-6-yl)-5-methylpyrazolo[1,5-a]pyrimidin-6-yl)acetic acid]",EC50,read-out: Activity,< 100 nM
